Here are results for 1 compound from patent US12447167B2, “GM-CSF-producing t-cell control agent and Th1/Th2 immune balance regulator” (National Center of Neurology and Psychiatry, priority 2014, dated 2025).

In the assay the test system is GM-CSF-producing CD8-positive T-cells. Put plainly: GM-CSF-producing CD8-positive T-cells in PBMCs of normal subjects after single oral dose (FACS). The format is in vivo, human. As for the experimental part: A single dose of compound 31, which is a synthetic glycolipid of the present invention, described in the first aspect, i.e., (2S,3S,4R)-1-O-(α-D-galactosyl)-2-(N-tetracosanoylamino)-1,3,4-nonanetriol represented by the following formula (III), was orally administered to each of subjects of 4 cohorts (A, B, C, and D cohorts) each consisting of 3 normal subjects shown in Table 1 above after obtainment of informed consent.
The dose was set to 0.3 mg per person for A cohort, 1 mg per person for B cohort, 3 mg per person for C cohort, and 10 mg per person for D cohort.
Subsequently, T-cell subfractions were prepared from the peripheral blood of each subject by using the density gradient centrifugation method. First, a total of 20 mL of blood was collected from the vein of each subject 24 hours (1st day), 48 hours (2nd day), 72 hours (3rd day), and 168 hours (7th day) after the administration of compound 31 by using two 10-mL heparin sodium-containing vacuum blood collection tubes. For a control, 20 mL of blood was similarly collected from the vein of each subject one day before the administration of compound 31.
Next, 4 mL of Ficoll-Paque Plus (GE Healthcare Biosciences Corp.) was placed in each of four 15-mL conical tubes, and 10 mL of blood diluted twice with phosphate buffered saline (PBS) was gently layered thereon. Then, density gradient centrifugation was performed by centrifugation at 1800 rpm at ordinary temperature for 30 minutes. After the centrifugation, a supernatant containing plasma and platelet was discarded, and lymphocytes present at the boundary layer between the supernatant layer and the Ficoll-Paque Plus layer were recovered into a fresh 50-mL conical tube. The 50-mL conical tube was filled by adding PBS thereto, followed by centrifugation at 1800 rpm at ordinary temperature for 5 minutes. […] After a supernatant was removed by suction again, a single cell suspension was prepared by adding 1 mL of AIM-V medium (Life Technologies Corp.), and then, the number of cells was measured with a counting chamber. […]

Consider `CCCCCCCCCCCCCCCCCCCCCCCC(=O)NC(COC1OC(CO)C(O)C(O)C1O)[C@H](O)C(O)CCCCC` (stereo in doubt) [compound 31, (2S,3S,4R)-1-O-(α-D-galactosyl)-2-(N-tetracosanoylamino)-1,3,4-nonanetriol], for which the “suppressive effects on CD8-positive T-cells” value (A cohort (0.3 mg), 7 days after administration) is on record as “strengthened”. In addition, the “growth of CD8-positive T-cells” value (C cohort (3 mg), 1 day after administration) is given as “transiently promoted”. For the same compound, the “proportion of CD8-positive T-cells (GM-CSF-producing) in PBMCs” value (single oral dose, all cohorts, after administration vs day-1) was “decreased”.
